Key:
[1] = Compound stability in a biological matrix (human plasma); format: in vitro ADME; conditions: 10 μg/mL, 37° C., LC-MS/MS
Procedure: (§1) A compound was dissolved in DMSO as a 1 mg/mL stock solution. An ACN solution of the compound at 100 μg/mL was prepared from the stock solution, 10 μL of which was added to a biological matrix (90 μL) to the final concentration of 10 μg/mL for the compound. The mixtures of the compound in a biological matrix were incubated at 37° C. for 0, 0.5, 1, or 4 h. At each time point, ACN (900 μL) was added to a mixture. After the mixture was centrifuged at 15,000 rpm for 5 min, the supernatant was mixed with the same volume of H2O (1% TFA) and then analyzed by LC-MS/MS. The results are summarized in Table 3, wherein Cbz-AAM is (2R,3S,4R,5S)-6-((4-((S)-6-acetamido-2-(((benzyloxy)carbonyl)amino)hexan-amido)phenyl)(phenyl)methoxy)-2-(acetoxymethyl)-5-(2-azidoacetamido)tetrahydro-2H-pyran-3,4-diyl diacetate.

[2] = Compound stability in a biological matrix (mouse plasma); format: in vitro ADME; conditions: 10 μg/mL, 37° C., LC-MS/MS
Procedure: as §1

A549 cells = assay: Flow cytometry analysis of cell labeling (azido labeling efficiency); format: cell-based; conditions: Homo sapiens; A549 cells (lung); azido compound 25 μM, 48 h; mean fluorescence of live cells compared with PBS negative control
Procedure: Cells (2.0×10^6 cells/mL, 2 mL) were seeded in a 6-well culture plate and attached at 37° C. overnight. After washed thrice with PBS, the cells were incubated with an azido compound (25 μM) at 37° C. for 48 h. After washed thrice with PBS, the cells were incubated with DBCO-biotin (50 μM) in 500 μL serum free DMEM at 37° C. for 1 h. The cells were washed thrice with PBS and then incubated with streptavidin-Cy5 (5 μg/mL) in 500 μL serum free DMEM at 37° C. for 1 h. The cells were washed thrice with PBS, followed by addition of 300 μL 1×trypsin/EDTA for digestion. The lifted cells were transferred to a 1.5 mL EP tube, centrifuge at 1,000 rpm for 3 min, and washed with PBS once. Finally, 500 μL PBS containing 4% PFA was added to the cell pellet to fix the cells. The cell suspension was transferred to a flow tube and mixed with 10 μL of a PI working solution (50 μg/mL) at room temperature for 30 min before being subjected to flow cytometry.
Flow cytometry was used to characterize the labeling efficiency of a compound provided herein. After cells were labeled with an azido group, DBCO-biotin was added to specifically react with the azido group. Avidin-Cy5 was added bind to the cell surface biotin for a flow cytometry analysis. Dead cells were stained with PI and excluded from the analysis. Results were presented as the mean fluorescence of live cells, compared with PBS as a negative control and Ac4ManNAz (AAM) as a positive control, Ac4ManNAz (AAM, CAS: 361154-30-5).

| SMILES | Compound Remaining (%) Human 1 h [1] [%] | Compound Remaining (%) Human 4 h [1] [%] | Compound Remaining (%) Mouse 1 h [2] [%] | activity at 25 µM (A549 cells) [%] | Compound Remaining (%) Mouse 4 h [2] [%] |
| --- | --- | --- | --- | --- | --- |
| CC(=O)NCCCC[C@H](NC(=O)OCc1ccccc1)C(=O)Nc1ccc(C(OC2O[C@H](COC(C)=O)[C@@H](OC(C)=O)[C@H](OC(C)=O)[C@@H]2NC(=O)CN=[N+]=[N-])c2ccccc2)cc1 (stereo partly drawn) [Cbz-AAM, (2R,3S,4R,5S)-6-((4-((S)-6-acetamido-2-(((benzyloxy)carbonyl)amino)hexan-amido)phenyl)(phenyl)methoxy)-2-(acetoxymethyl)-5-(2-azidoacetamido)tetrahydro-2H-pyran-3,4-diyl diacetate, reference compound] | 100 | 100 | 16 | – | – |
| CC(=O)NCCCC[C@H](NC(=O)OCc1ccccc1)C(=O)Nc1ccc(C(OC2OC(COC(C)=O)C(OC(C)=O)C(OC(C)=O)C2NC(=O)CN=[N+]=[N-])c2cnc[nH]2)cc1 (stereo partly drawn) [Compound A1, 1-O-(1-(imidazol-4-yl)-1-(4-(6-acetamido-2(S)-(benzyloxycarbonylamino)-hexanamido)phenyl)methyl)-2-(2-azidoacetylamino)-2-deoxy-3,4,6-tri-O-acetyl-D-mannopyranoside] | 94 | 70 | 91 | 103 | 72 |
| CC(=O)NCCCC[C@H](NC(=O)OCc1ccccc1)C(=O)Nc1ccc(C(OC2OC(COC(C)=O)C(OC(C)=O)C(OC(C)=O)C2NC(=O)CN=[N+]=[N-])c2cn(C)cn2)cc1 (stereo partly drawn) [Compound A2, 1-O-(1-(1-methylimidazol-4-yl)-1-(4-(6-acetamido-2(S)-(benzyloxycarbonylamino)-hexanamido)phenyl)methyl)-2-(2-azidoacetylamino)-2-deoxy-3,4,6-tri-O-acetyl-D-mannopyranoside] | 100 | 90 | 98 | 250 | 87 |
| CC(=O)NCCCC[C@H](NC(=O)OCc1ccccc1)C(=O)Nc1ccc(C(OC2OC(COC(C)=O)C(OC(C)=O)C(OC(C)=O)C2NC(=O)CN=[N+]=[N-])c2cncs2)cc1 (stereo partly drawn) [Compound A3, 1-O-(1-(thiazol-5-yl)-1-(4-(6-acetamido-2(S)-(benzyloxycarbonylamino)-hexanamido)phenyl)methyl)-2-(2-azidoacetylamino)-2-deoxy-3,4,6-tri-O-acetyl-D-mannopyranoside] | – | – | 72 | – | 19 |
| CC(=O)NCCCC[C@H](NC(=O)OCc1ccccc1)C(=O)Nc1ccc(C(OC2OC(COC(C)=O)C(OC(C)=O)C(OC(C)=O)C2NC(=O)CN=[N+]=[N-])c2cccs2)cc1 (stereo partly drawn) [Compound A4, 1-O-(1-(thien-2-yl)-1-(4-(6-acetamido-2(S)-(benzyloxycarbonylamino)-hexanamido)phenyl)methyl)-2-(2-azidoacetylamino)-2-deoxy-3,4,6-tri-O-acetyl-D-mannopyranoside] | 2 | 1 | 3 | 83 | 3 |
| CC(=O)NCCCC[C@H](NC(=O)OCc1ccccc1)C(=O)Nc1ccc(C(OC2OC(COC(C)=O)C(OC(C)=O)C(OC(C)=O)C2NC(=O)CN=[N+]=[N-])c2ccsc2)cc1 (stereo partly drawn) [Compound A5, 1-O-(1-(Thien-3-yl)-1-(4-(6-acetamido-2(S)-(benzyloxycarbonylamino)hexan-amido)phenyl)methyl)-2-(2-azidoacetylamino)-2-deoxy-3,4,6-tri-O-acetyl-D-mannopyranoside] | 2 | 1 | 2 | 130 | 2 |
| CC(=O)NCCCC[C@H](NC(=O)OCc1ccccc1)C(=O)Nc1ccc(C(OC2OC(COC(C)=O)C(OC(C)=O)C(OC(C)=O)C2NC(=O)CN=[N+]=[N-])c2cccnc2)cc1 (stereo partly shown) [Compound A6] | 88 | 65 | 4 | – | 0.6 |
| CC(=O)NCCCC[C@H](NC(=O)OCc1ccccc1)C(=O)Nc1ccc(C(OC2OC(COC(C)=O)C(OC(C)=O)C(OC(C)=O)C2NC(=O)CN=[N+]=[N-])c2ccncc2)cc1 (stereo partly drawn) [Compound A7, 1-O-(1-(Pyridin-4-yl)-1-(4-(6-acetamido-2(S)-(benzyloxycarbonylamino)hexan-amido)phenyl)methyl)-2-(2-azidoacetylamino)-2-deoxy-3,4,6-tri-O-acetyl-D-mannopyranoside] | 41 | 4 | 29 | – | 6 |
| CC(=O)NCCCC[C@H](NC(=O)OCc1ccccc1)C(=O)Nc1ccc(C(OC2OC(COC(=O)C3CCOCC3)C(OC(C)=O)C(OC(C)=O)C2NC(=O)CN=[N+]=[N-])c2ccnn2C)cc1 (stereo partly drawn) [Compound A9, 1-O-(1-(2-methylpyrazol-3-yl)-1-(4-(6-acetamido-2(S)-(benzyloxycarbonyl-amino)hexanamido)phenyl)methyl)-2-(2-azidoacetylamino)-2-deoxy-3,4-di-O-acetyl-6-O-tetrahydropyran-4-ylcarbonyl-D-mannopyranoside] | 63 | 16 | 84 | 197 | 27 |
| CC(=O)NCCCC[C@H](NC(=O)OCc1ccccc1)C(=O)Nc1ccc(C(OC2OC(COC(=O)C3CCN(C)CC3)C(OC(C)=O)C(OC(C)=O)C2NC(=O)CN=[N+]=[N-])c2ccnn2C)cc1 (stereo partly drawn) [Compound A10, 1-O-(1-(2-Methylpyrazol-3-yl)-1-(4-(6-acetamido-2(S)-(benzyloxycarbonyl-amino)hexanamido)phenyl)methyl)-2-(2-azidoacetylamino)-2-deoxy-3,4-di-O-acetyl-6-O-(1-methylpiperidin-4-yl)carbonyl-D-mannopyranoside] | 62 | 5 | 81 | 166 | 21 |
| CC(=O)NCCCC[C@H](NC(=O)OCc1ccccc1)C(=O)Nc1ccc(C(OC2OC(COC(=O)CN3CCCC3)C(OC(C)=O)C(OC(C)=O)C2NC(=O)CN=[N+]=[N-])c2ccnn2C)cc1 (stereo partly drawn) [Compound A11, 1-O-(1-(2-Methylpyrazol-3-yl)-1-(4-(6-acetamido-2(S)-(benzyloxycarbonyl-amino)hexanamido)phenyl)methyl)-2-(2-azidoacetylamino)-2-deoxy-3,4-di-O-acetyl-6-O-(pyrrolin-1-ylacetyl)-D-mannopyranoside] | – | – | 38 | – | 3 |
| CC(=O)NCCCC[C@H](NC(=O)OCc1ccccc1)C(=O)Nc1ccc(C(OC2OC(COC(=O)Cc3cccnc3)C(OC(C)=O)C(OC(C)=O)C2NC(=O)CN=[N+]=[N-])c2ccnn2C)cc1 (stereo partly drawn) [Compound A12, 1-O-(1-(2-Methylpyrazol-3-yl)-1-(4-(6-acetamido-2(S)-(benzyloxycarbonyl-amino)hexanamido)phenyl)methyl)-2-(2-azidoacetylamino)-2-deoxy-3,4-di-O-acetyl-6-O-(pyridin-3-ylacetyl)-D-mannopyranoside] | 64 | 8 | 82 | 165 | 27 |
| CC(=O)NCCCC[C@H](NC(=O)OCc1ccccc1)C(=O)Nc1ccc(C(OC2OC(COC(=O)c3cccnc3)C(OC(C)=O)C(OC(C)=O)C2NC(=O)CN=[N+]=[N-])c2ccnn2C)cc1 (stereo partly drawn) [Compound A13, 1-O-(1-(2-Methylpyrazol-3-yl)-1-(4-(6-acetamido-2(S)-(benzyloxycarbonyl-amino)hexanamido)phenyl)methyl)-2-(2-azidoacetylamino)-2-deoxy-3,4-di-O-acetyl-6-O-(pyridin-3-ylcarbonyl)-D-mannopyranoside] | 50 | 12 | 76 | 180 | 22 |

From patent US20260200964A1, “MONOSACCARIDES, PHARMACEUTICAL COMPOSITIONS, AND DIAGNOSTIC AND THERAPEUTIC APPLICATIONS” (Surio Therapeutics Co., LTD., priority 2022, published 2026)
